# Reference: patent US6737383B1, “Herbicidal oxadiazolidines” (priority 1999, dated 2004)
# Columns and labels:
# [1] = test system: velvetleaf; experiment: Test B pre/postemergence velvetleaf; format: in vivo, Abutilon theophrasti; conditions: for Plant response rating, Velvetleaf: Postemergence
# In short: (§1)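 Response is a visual 0-to-10 score relative to untreated plants, where 0 means no effect and 10 means complete control, taken twelve to sixteen days after application. Treatments went onto soil at planting and onto foliage of 1- to 4-leaf plants, using a surfactant-containing non-phytotoxic solvent.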
# [2] = test system: wheat; experiment: Test B pre/postemergence wheat; format: in vivo, Triticum aestivum; conditions: for Plant response rating, Wheat: Postemergence
# In short: as §1
# [3] = test system: crabgrass; experiment: Test B pre/postemergence crabgrass; format: in vivo, Digitaria sanguinalis
# In short: as §1
# [4] = test system: soybean; experiment: Test B pre/postemergence soybean; format: in vivo, Glycine max; conditions: for Plant response rating, Soybean: Postemergence
# In short: as §1
# [5] = test system: cocklebur; experiment: Test B pre/postemergence cocklebur; format: in vivo, Xanthium strumarium
# In short: as §1
# [6] = test system: surinam grass; experiment: Test B pre/postemergence surinam grass; format: in vivo, Brachiaria decumbens; conditions: for Plant response rating, B. signalgrass: scale of 0 to 10 where 0 is no effect and 10 is complete control
# In short: as §1
# [7] = test system: giant foxtail; experiment: Test B pre/postemergence giant foxtail; format: in vivo, Setaria faberii
# In short: as §1
# [8] = test system: morningglory; experiment: Test B pre/postemergence morningglory; format: in vivo, Ipomoea hederacea
# In short: as §1
# [9] = test system: rape; experiment: Test B pre/postemergence rape; format: in vivo, Brassica napus
# In short: as §1
# [10] = test system: blackgrass; experiment: Test B pre/postemergence blackgrass; format: in vivo, Alopecurus myosuroides
# In short: as §1
# [11] = test system: pigweed; experiment: Test B pre/postemergence pigweed; format: in vivo, Amaranthus retroflexus; conditions: for Plant response rating, Redroot pigweed: Postemergence
# In short: as §1
# [12] = test system: corn; experiment: Test B pre/postemergence corn; format: in vivo, Zea mays
# In short: as §1
# [13] = test system: bedstraw; experiment: Test B pre/postemergence bedstraw; format: in vivo, Galium aparine; conditions: Preemergence
# In short: as §1
# [14] = test system: wild oat; experiment: Test B pre/postemergence wild oat; format: in vivo, Avena fatua; conditions: for Plant response rating, Wild oats: Postemergence
# In short: as §1
# [15] = test system: sugar beet; experiment: Test B pre/postemergence sugar beet; format: in vivo, Beta vulgaris
# In short: as §1
# [16] = test system: purple nutsedge; experiment: Test B pre/postemergence purple nutsedge; format: in vivo, Cyperus rotundus; conditions: for Nutsedge plant response rating: Rate 125 g/ha, scale 0 to 10, 0 is no effect, 10 is complete control
# In short: as §1
# [17] = Rate 500 g/ha, scale of 0 to 10 where 0 is no effect and 10 is complete control
# [18] = Preemergence, Rate 62 g/ha, scale 0 to 10 (0 no effect, 10 complete control)
# [19] = Preemergence, Rate 125 g/ha, scale 0 to 10, 0 is no effect, 10 is complete control
# [20] = Preemergence, Rate 500 g/ha, scale of 0 to 10 where 0 is no effect and 10 is complete control
# [21] = Rate 250 g/ha, scale of 0 to 10 where 0 is no effect and 10 is complete control
# [22] = Postemergence, Rate 62 g/ha, scale of 0 to 10, 0 is no effect, 10 is complete control
# [23] = Postemergence, Rate 125 g/ha, scale 0 to 10, 0 is no effect, 10 is complete control
# [24] = Postemergence, Rate 500 g/ha, scale of 0 to 10 where 0 is no effect and 10 is complete control
# [25] = Rate 250 g/ha, Postemergence, scale of 0 to 10 where 0 is no effect and 10 is complete control
smiles,measurement,setting,value
C=CCCCn1c(=O)on(C(=O)N(c2ccccc2)C(C)C)c1=O [Compound 575],"Plant response rating, Velvetleaf",[1]; [17],3
same,Velvetleaf plant response rating,[1]; [18],0
same,Velvetleaf plant response rating,[1]; [19],0
same,Velvetleaf plant response rating (0 to 10 scale),"[1]; Preemergence, Rate 250 g/ha",0
same,Velvetleaf plant response rating,[1]; [20],2
same,"Plant response rating, Velvetleaf",[1]; [21],2
same,"Plant response rating, Wheat",[2]; [17],2
same,Wheat plant response rating,[2]; [18],0
same,Wheat plant response rating,[2]; [19],0
same,Wheat plant response rating (0 to 10 scale),"[2]; Preemergence, Rate 250 g/ha",0
same,Wheat plant response rating,[2]; [20],0
same,"Plant response rating, Wheat",[2]; [21],0
same,Crabgrass plant response rating,[3]; [22],0
same,Crabgrass plant response rating,[3]; [23],2
same,"Plant response rating, Crabgrass",[3]; [24],9
same,Crabgrass plant response rating,[3]; [18],8
same,Crabgrass plant response rating,[3]; [19],9
same,Crabgrass plant response rating (0 to 10 scale),"[3]; Preemergence, Rate 250 g/ha",9
same,Crabgrass plant response rating,[3]; [20],9
same,"Plant response rating, Crabgrass",[3]; [25],9
same,"Plant response rating, Soybean",[4]; [17],6
same,Soybean plant response rating,[4]; [18],0
same,Soybean plant response rating,[4]; [19],0
same,Soybean plant response rating (0 to 10 scale),"[4]; Preemergence, Rate 250 g/ha",0
same,Soybean plant response rating,[4]; [20],0
same,"Plant response rating, Soybean",[4]; [21],5
same,Cocklebur plant response rating,[5]; [22],0
same,Cocklebur plant response rating,[5]; [23],0
same,"Plant response rating, Cocklebur",[5]; [24],2
same,Cocklebur plant response rating,[5]; [18],0
same,Cocklebur plant response rating,[5]; [19],0
same,Cocklebur plant response rating (0 to 10 scale),"[5]; Preemergence, Rate 250 g/ha",0
same,Cocklebur plant response rating,[5]; [20],0
same,"Plant response rating, Cocklebur",[5]; [25],0
same,B. signalgrass plant response rating,[6]; [22],0
same,B. signalgrass plant response rating,[6]; [23],0
same,"Plant response rating, B. signalgrass","[6]; Postemergence, Rate 500 g/ha",3
same,B. signalgrass plant response rating,[6]; [18],6
same,B. signalgrass plant response rating,[6]; [19],9
same,"B. signalgrass plant response rating (0 to 10 scale, 0 is no effect, 10 is complete control)","[6]; Preemergence, Rate 250 g/ha",10
same,"Plant response rating, B. signalgrass","[6]; Rate 250 g/ha, Postemergence",0
same,Giant foxtail plant response rating,[7]; [23],2
same,Giant foxtail plant response rating,[7]; [18],8
same,Giant foxtail plant response rating,[7]; [19],10
same,Giant foxtail plant response rating (0 to 10 scale),"[7]; Preemergence, Rate 250 g/ha",10
same,Giant foxtail plant response rating,[7]; [20],10
same,"Plant response rating, Giant foxtail",[7]; [25],8
same,Morningglory plant response rating,[8]; [22],4
same,Morningglory plant response rating,[8]; [23],6
same,"Plant response rating, Morningglory",[8]; [24],10
same,Morningglory plant response rating,[8]; [18],0
same,Morningglory plant response rating,[8]; [19],0
same,Morningglory plant response rating (0 to 10 scale),"[8]; Preemergence, Rate 250 g/ha",0
same,Morningglory plant response rating,[8]; [20],2
same,"Plant response rating, Morningglory",[8]; [25],9
same,Rape plant response rating,[9]; [22],0
same,Rape plant response rating,[9]; [23],0
same,"Plant response rating, Rape",[9]; [24],3
same,Rape plant response rating,[9]; [18],0
same,Rape plant response rating,[9]; [19],2
same,Rape plant response rating (0 to 10 scale),"[9]; Preemergence, Rate 250 g/ha",2
same,Rape plant response rating,[9]; [20],2
same,"Plant response rating, Rape",[9]; [25],3
same,Blackgrass plant response rating,[10]; [22],0
same,Blackgrass plant response rating,[10]; [23],0
same,"Plant response rating, Blackgrass",[10]; [24],3
same,Blackgrass plant response rating,[10]; [18],2
same,Blackgrass plant response rating,[10]; [19],6
same,Blackgrass plant response rating (0 to 10 scale),"[10]; Preemergence, Rate 250 g/ha",7
same,Blackgrass plant response rating,[10]; [20],2
same,"Plant response rating, Blackgrass",[10]; [25],0
same,"Plant response rating, Redroot pigweed",[11]; [17],7
same,Redroot pigweed plant response rating,[11]; [18],9
same,Redroot pigweed plant response rating,[11]; [19],9
same,Redroot pigweed plant response rating (0 to 10 scale),"[11]; Preemergence, Rate 250 g/ha",10
same,Redroot pigweed plant response rating,[11]; [20],10
same,"Plant response rating, Redroot pigweed",[11]; [21],4
same,Corn plant response rating,[12]; [22],0
same,Corn plant response rating,[12]; [23],0
same,"Plant response rating, Corn",[12]; [24],0
same,Corn plant response rating,[12]; [18],0
same,Corn plant response rating,[12]; [19],0
same,Corn plant response rating (0 to 10 scale),"[12]; Preemergence, Rate 250 g/ha",0
same,Corn plant response rating,[12]; [20],3
same,"Plant response rating, Corn",[12]; [25],0
same,Bedstraw plant response rating,"[13]; Rate 62 g/ha, scale 0 to 10 (0 no effect, 10 complete control)",0
same,Bedstraw plant response rating,"[13]; Rate 125 g/ha, scale 0 to 10, 0 is no effect, 10 is complete control",0
same,Bedstraw plant response rating (0 to 10 scale),[13]; Rate 250 g/ha,0
same,Bedstraw plant response rating,[13]; [17],0
same,"Plant response rating, Wild oats",[14]; [17],0
same,Wild oats plant response rating,[14]; [18],0
same,Wild oats plant response rating,[14]; [19],0
same,Wild oats plant response rating (0 to 10 scale),"[14]; Preemergence, Rate 250 g/ha",2
same,Wild oats plant response rating,[14]; [20],2
same,"Plant response rating, Wild oats",[14]; [21],0
same,"Plant response rating, Sugarbeets",[15]; [24],2
same,Sugarbeets plant response rating,[15]; [18],0
same,Sugarbeets plant response rating,[15]; [19],0
same,Sugarbeets plant response rating (0 to 10 scale),"[15]; Preemergence, Rate 250 g/ha",0
same,Sugarbeets plant response rating,[15]; [20],2
same,Nutsedge plant response rating,[16]; Postemergence,0
same,Nutsedge plant response rating,[16]; Preemergence,0
same,Nutsedge plant response rating (0 to 10 scale),"[16]; Preemergence, Rate 250 g/ha",0
same,"Plant response rating, Nutsedge",[16]; [25],0
